The source of these data is PMC12197678, “Cvill6 and Cvill7: Potent and Selective Peptide Blockers of Kv1.2 Ion Channel Isolated from Mexican Scorpion Centruroides villegasi” (Toxins, 2025).

One experiment deals with Kv1.2. As to conditions: ref [21],[22]; cited from earlier work. From the text: The Kv1.2 ion channel, a member of voltage-gated potassium channels, is encoded by the KCNA2 gene. Kv1.2 is predominantly expressed in the central nervous system (CNS) abundantly in the cerebellum, hippocampus, and cortex. It plays a crucial role in action potential propagation, neuronal excitability, and synaptic transmission. Gain-of-function (GOF) mutations in KCNA2 cause increased Kv1.2 activity, resulting in excessive potassium conductance leading to neuronal hyperpolarization, and impairing normal brain function. A decade ago, Kv1.2 emerged as a key factor ...

Another experiment has as its target T1, hKv1.3 (Homo sapiens, UniProt P22001).
T1 construct: peripheral blood mononuclear cells (PBMCs) were isolated from the healthy donor’s blood; endogenous in cells
The experiment is described as follows: cell-based. The class given is cell-based. From the text: Therefore, we aimed to investigate the effects of Cvill6 and Cvill7 on voltage-gated K^+ ion channels. Among the tested ion channels there were four members from the Shaker-related human Kv1 family, hKv1.1, hKv1.2, hKv1.3, and hKv1.5 (Figure 3A–E), and one member of the human ether-a-go-go-related (hERG) cardiac K^+ channel hKv11.1 (hERG1, Figure 3F). For current recordings, Kv1.1, Kv1.2, and Kv1.5 were transiently expressed in CHO cells while for Kv11.1 a stable HEK293 cell line was used. To record Kv1.3 currents human peripheral T lymphocytes were activated with Phytohemagglutinin A (PHA) to boost Kv1.3 expression and Ca^2+-free intracellular solution to prevent the KCa3.1 channel opening. […] Appropriate voltage protocols were applied to record the K^+ currents from voltage-clamped cells in whole-cell configurations. Toxins were freshly dissolved in the bath solution supplemented with 0.1 mg/mL BSA and applied to the patched cells via a gravity-fed micro-perfusion system with an approximate flow rate of 200 µL/min.
To avoid toxin adsorption onto the plastic surfaces of the perfusion system, 0.1 mg/mL of bovine serum albumin (BSA, Sigma-Aldrich, Budapest, Hungary) was also added into all bath solutions prior to the patch-clamp assay.
Whole-cell currents were recorded using the patch-clamp technique in voltage-clamp mode, following standard protocols. […] Micropipettes were made from GC150F-7.5 borosilicate capillaries (Harvard Apparatus Co., Holliston, MA, USA) using a Sutter P2000 laser puller with tip resistance generally ranging from 3–6 MΩ in the bath solution. Only recordings with a leak current at the holding potential (Vh) of <10% of the peak current at the test potential were included in the data analysis. All recordings were performed at room temperature (20–25 °C). Control and test solutions were perfused to the cells via a gravity-driven micro-perfusion system and AutoMate Perfusion Pencil Multi-Barrel Manifold Tip (AutoMate Scientific, Berkeley, CA, USA), with an approximate flow rate of 200 µL/min, and the excess amount of bath solution was continuously removed from the recording chamber using vacuum suction.
The duration of depolarization pulses was 15 ms for Kv1.3 and 50 ms for Kv1.1 and Kv1.5. However, for Kv1.2, 15–500 ms-long pulses were used to achieve the saturated peak current due to the variable activation kinetics of this channel. […] KCa2.2 and KCa3.1 currents were recorded by applying 150 ms-long voltage ramps to +50 mV from −120 mV every 10 s; the Vh was set to −85 mV.
Before analysis, all current traces were digitally filtered using three-point boxcar smoothing and were corrected for ohmic leakage, only if required. […] Data points in the concentration–response curve represent the mean RCF values of three to six individual cells, with error bars denoting the standard error of the mean (SEM). The data points for each concentration were fitted using the Hill equation: RCF = IC50^H/(IC50^H + [toxin]^H), where IC50 is the dissociation constant, H represents the Hill coefficient, and [toxin] is the concentration of the toxin.
To study the binding kinetics of Cvill toxins, the peak current during the application of toxin at time point t (It) was normalized to the peak current (I0) before the toxin exposure (Inorm = It/I0) and plotted as a function of time.

For the next experiment, the target named is T2, hKv1.1 (Homo sapiens, UniProt Q09470).
T2 construct: host or cells: CHO cells, transient transfection (Lipofectamine 2000)
T2 sequence (Q09470 whole entry): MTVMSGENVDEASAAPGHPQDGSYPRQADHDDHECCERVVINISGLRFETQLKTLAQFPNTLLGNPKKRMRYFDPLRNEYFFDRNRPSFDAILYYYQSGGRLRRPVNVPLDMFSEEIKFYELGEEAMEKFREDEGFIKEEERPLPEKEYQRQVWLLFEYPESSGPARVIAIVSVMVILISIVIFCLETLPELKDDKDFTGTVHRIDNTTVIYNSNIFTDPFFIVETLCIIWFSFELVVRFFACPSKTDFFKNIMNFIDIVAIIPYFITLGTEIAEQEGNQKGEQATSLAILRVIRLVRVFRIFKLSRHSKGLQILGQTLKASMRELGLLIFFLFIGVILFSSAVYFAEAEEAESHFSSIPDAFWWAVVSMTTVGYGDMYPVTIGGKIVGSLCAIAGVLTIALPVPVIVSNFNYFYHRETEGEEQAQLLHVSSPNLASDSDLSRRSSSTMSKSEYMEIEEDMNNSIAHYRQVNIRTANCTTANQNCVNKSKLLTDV
As to the kind of experiment: cell-based. The class given is cell-based.

A further experiment deals with hKv1.5. It is filed as cell-based, human.
In another experiment the target is T3, hKv1.2 (Homo sapiens, UniProt P16389).
T3 construct: host or cells: CHO cells, transient transfection (Lipofectamine 2000)
T3 sequence (P16389 whole entry): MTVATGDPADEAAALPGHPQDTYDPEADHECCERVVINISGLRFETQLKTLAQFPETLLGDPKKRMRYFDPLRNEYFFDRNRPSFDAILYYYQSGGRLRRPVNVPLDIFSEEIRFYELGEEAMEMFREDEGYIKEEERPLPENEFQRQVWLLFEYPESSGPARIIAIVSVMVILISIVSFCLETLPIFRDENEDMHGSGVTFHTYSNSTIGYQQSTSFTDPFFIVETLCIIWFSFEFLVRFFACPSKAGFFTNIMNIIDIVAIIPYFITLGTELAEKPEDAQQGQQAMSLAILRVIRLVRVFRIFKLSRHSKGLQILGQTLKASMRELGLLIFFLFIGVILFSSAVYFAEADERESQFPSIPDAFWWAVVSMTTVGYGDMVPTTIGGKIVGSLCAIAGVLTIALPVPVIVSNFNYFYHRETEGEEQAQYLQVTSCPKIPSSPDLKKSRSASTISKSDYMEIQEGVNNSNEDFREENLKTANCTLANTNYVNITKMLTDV
As to the kind of experiment: Whole-cell patch-clamp, hKv1.2 current in transiently transfected CHO cells. The class given is cell-based. As to conditions: positive control.

T1 sequence (P22001 whole entry): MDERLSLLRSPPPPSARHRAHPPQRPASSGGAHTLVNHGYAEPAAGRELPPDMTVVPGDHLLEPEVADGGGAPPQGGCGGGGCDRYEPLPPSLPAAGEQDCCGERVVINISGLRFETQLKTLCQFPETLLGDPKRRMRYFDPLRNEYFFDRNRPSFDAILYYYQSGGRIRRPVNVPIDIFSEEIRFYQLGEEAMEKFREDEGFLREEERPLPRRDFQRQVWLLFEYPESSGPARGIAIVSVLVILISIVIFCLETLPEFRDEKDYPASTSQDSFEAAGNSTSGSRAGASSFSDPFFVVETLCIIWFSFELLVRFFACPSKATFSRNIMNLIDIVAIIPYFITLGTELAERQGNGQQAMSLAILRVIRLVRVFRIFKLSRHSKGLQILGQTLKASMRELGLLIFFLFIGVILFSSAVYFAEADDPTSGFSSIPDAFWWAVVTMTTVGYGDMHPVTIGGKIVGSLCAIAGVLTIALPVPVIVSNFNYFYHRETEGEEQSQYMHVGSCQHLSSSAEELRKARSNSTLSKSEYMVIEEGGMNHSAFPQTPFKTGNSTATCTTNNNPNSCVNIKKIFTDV
Description for hKv1.1: (§1) Chinese hamster ovary (CHO) cells (generously provided by Yosef Yarden, Weizmann Institute of Science, Rehovot, Israel) or human embryonic kidney (HEK293) cells were cultured and maintained in Dulbecco’s modified Eagle medium (DMEM, Thermo Fisher Scientific, Waltham, MA, USA) supplemented with 2 mM L-glutamine, 10% fetal bovine serum (FBS), 100 µg/mL streptomycin, and 100 U/mL penicillin-g (Sigma-Aldrich, Budapest, Hungary) following standard culturing conditions [52]. For transient expression of ion channels, CHO cells were transfected using the Lipofectamine 2000 kit (Invitrogen, Waltham, MA, USA) following the manufacturer’s instructions with plasmids encoding specific ion channels, including hKv1.1 (KCNA1 gene), hKv1.2 (KCNA2 gene), and hKv1.5 (KCNA5 gene) in a pCMV6-AC-GFP vector (OriGene Technologies), hKCa2.2 (KCNN2 gene) in a pCDN3 plasmid (for this transfection a GFP containing plasmid was co-transfected, courtesy of Bernard Attali, Tel Aviv University, Tel Aviv, Israel), and hKCa3.1 (KCNN4 gene) in a pEGFP-C1 vector (a kind gift by H. Wulff, University of California, Davis, CA, USA). […] Electrophysiological recordings were typically conducted 24 to 48 h after transfection.
(§2) Whole-cell currents were recorded using the patch-clamp technique in voltage-clamp mode, following standard protocols [73]. […] Micropipettes were made from GC150F-7.5 borosilicate capillaries (Harvard Apparatus Co., Holliston, MA, USA) using a Sutter P2000 laser puller with tip resistance generally ranging from 3–6 MΩ in the bath solution. Only recordings with a leak current at the holding potential (Vh) of <10% of the peak current at the test potential were included in the data analysis. All recordings were performed at room temperature (20–25 °C). Control and test solutions were perfused to the cells via a gravity-driven micro-perfusion system and AutoMate Perfusion Pencil Multi-Barrel Manifold Tip (AutoMate Scientific, Berkeley, CA, USA), with an approximate flow rate of 200 µL/min, and the excess amount of bath solution was continuously removed from the recording chamber using vacuum suction.
(§3) The duration of depolarization pulses was 15 ms for Kv1.3 and 50 ms for Kv1.1 and Kv1.5. However, for Kv1.2, 15–500 ms-long pulses were used to achieve the saturated peak current due to the variable activation kinetics of this channel [74].
Description for hKv1.2: as §1, §2, §3
Description for hKv1.5: Chinese hamster ovary (CHO) cells (generously provided by Yosef Yarden, Weizmann Institute of Science, Rehovot, Israel) or human embryonic kidney (HEK293) cells were cultured and maintained in Dulbecco’s modified Eagle medium (DMEM, Thermo Fisher Scientific, Waltham, MA, USA) supplemented with 2 mM L-glutamine, 10% fetal bovine serum (FBS), 100 µg/mL streptomycin, and 100 U/mL penicillin-g (Sigma-Aldrich, Budapest, Hungary) following standard culturing conditions [52]. For transient expression of ion channels, CHO cells were transfected using the Lipofectamine 2000 kit (Invitrogen, Waltham, MA, USA) following the manufacturer’s instructions with plasmids encoding specific ion channels, including hKv1.1 (KCNA1 gene), hKv1.2 (KCNA2 gene), and hKv1.5 (KCNA5 gene) in a pCMV6-AC-GFP vector (OriGene Technologies), hKCa2.2 (KCNN2 gene) in a pCDN3 plasmid (for this transfection a GFP containing plasmid was co-transfected, courtesy of Bernard Attali, Tel Aviv University, Tel Aviv, Israel), and hKCa3.1 (KCNN4 gene) in a pEGFP-C1 vector (a kind gift by H. Wulff, University of California, Davis, CA, USA). […] Electrophysiological recordings were typically conducted 24 to 48 h after transfection. […]
Whole-cell currents were recorded using the patch-clamp technique in voltage-clamp mode, following standard protocols [73]. […]

For `Nc1ccncc1` [4-aminopyridine], the “effect on gain-of-function defects in patients with KCNA2-related encephalopathy” value in the experiment on Kv1.2 was “can mitigate the gain-of-function defects in patients”.

As to `CC[N+](CC)(CC)CC` [TEA^+, tetraethylammonium chloride, reference compound], the “inhibition of Kv1.3 by positive control” value on hKv1.3 is recorded as “fully reversible inhibitors”. The “inhibition of Kv1.1 by positive control” value at hKv1.1 was “fully reversible inhibitors”. The “inhibition of Kv1.5 by positive control” value with hKv1.5 is “fully reversible inhibitors”.

Regarding charybdotoxin [reference compound], in the experiment with hKv1.2, the “inhibition of Kv1.2 by positive control” value is “fully reversible inhibitors”.
